Measured values from the NIST ThermoML archive (doi:10.1016/j.tca.2009.06.015).

Experiments:
[1] = refractive index (Na D-line) (dimensionless); xn = mol fraction of the nth substance listed; details: 101 kPa, Liquid, Standard Abbe refractometry
[2] = xn = mol fraction of the nth substance listed; details: 101 kPa, Liquid; for viscosity: Capillary tube (Ostwald / Ubbelohde) method; for mass density: Vibrating tube method

CCCCC(C)O (configuration not stated) [2-hexanol] + CC#N
Details	mass density, [2] [kg/m3]	refractive index, [1]	viscosity, [2] [mPa·s]
293.15 K, x2 = 0	814.08	1.4135	5.155
293.15 K, x2 = 0.0964	812.14	1.4103	3.491
293.15 K, x2 = 0.1813	810.22	1.4077	2.696
293.15 K, x2 = 0.2574	808.34	1.4051	2.128
293.15 K, x2 = 0.3436	806.07	1.4014	1.684
293.15 K, x2 = 0.4483	803.11	1.3972	1.276
293.15 K, x2 = 0.5398	800.33	1.3917	1.006
293.15 K, x2 = 0.6495	796.76	1.3837	0.7676
293.15 K, x2 = 0.758	792.88	1.3739	0.582
293.15 K, x2 = 0.8733	788.19	1.3621	0.4444
293.15 K, x2 = 0.9579	784.29	1.351	0.3758
298.15 K, x2 = 0	810.14	1.4116	4.1
298.15 K, x2 = 0.0964	808.14	1.4096	2.933
298.15 K, x2 = 0.1813	806.14	1.4078	2.284
298.15 K, x2 = 0.2574	804.19	1.4054	1.84
298.15 K, x2 = 0.3436	801.82	1.4022	1.475
298.15 K, x2 = 0.4483	798.72	1.3975	1.133
298.15 K, x2 = 0.5398	795.82	1.3924	0.9062
298.15 K, x2 = 0.6495	792.09	1.3837	0.6995
298.15 K, x2 = 0.758	788.02	1.373	0.5384
298.15 K, x2 = 0.8733	783.08	1.3595	0.4184
298.15 K, x2 = 0.9579	779.02	1.348	0.3583
303.15 K, x2 = 0	806.13	1.4093	3.41
303.15 K, x2 = 0.0964	804.04	1.4082	2.491
303.15 K, x2 = 0.1813	801.94	1.4064	1.967
303.15 K, x2 = 0.2574	799.91	1.4044	1.61
303.15 K, x2 = 0.3436	797.49	1.4021	1.301
303.15 K, x2 = 0.4483	794.38	1.3979	1.017
303.15 K, x2 = 0.5398	791.33	1.3925	0.8212
303.15 K, x2 = 0.6495	787.45	1.3839	0.6409
303.15 K, x2 = 0.758	783.07	1.374	0.5036
303.15 K, x2 = 0.8733	777.74	1.3596	0.3943
303.15 K, x2 = 0.9579	773.37	1.345	0.3411
308.15 K, x2 = 0	802.06	1.4077	2.819
308.15 K, x2 = 0.0964	799.97	1.4069	2.134
308.15 K, x2 = 0.1813	797.84	1.4061	1.708
308.15 K, x2 = 0.2574	795.74	1.4049	1.42
308.15 K, x2 = 0.3436	793.18	1.4026	1.155
308.15 K, x2 = 0.4483	789.88	1.3979	0.9154
308.15 K, x2 = 0.5398	786.73	1.3925	0.7511
308.15 K, x2 = 0.6495	782.83	1.3844	0.5933
308.15 K, x2 = 0.758	778.36	1.3745	0.4724
308.15 K, x2 = 0.8733	772.84	1.361	0.3759
308.15 K, x2 = 0.9579	768.23	1.3469	0.3263
